According to article PMC4632126, “High specific selectivity and Membrane-Active Mechanism of the synthetic centrosymmetric α-helical peptides with Gly-Gly pairs” (Scientific Reports, 2015):
Where no end group is shown, it is not given here.

Experiments:
[1] = tested on: human red blood cells (hRBCs); assay: Hemolytic activity; conditions: concentration causing 5% hemolysis of human red blood cells; about 1% hRBC in PBS, 37 °C, 1 h, OD 576 nm
Protocol: The hemolytic activity of each peptide was evaluated using a modified method, as described previously[21][22]. […] Then, the collected hRBCs were washed three times with PBS (pH 7.2), centrifuged at 1000 × g for 5 min, and resuspended in PBS (final concentration, approximately 1%). Next, 50 μL of the hRBC suspension was placed into a 96-well cell culture plate with 50 μL of test peptide solution in PBS at different concentrations, and the mixture was incubated at 37 °C for 1 h. After incubation, the plate was centrifuged at 1000 × g for 5 min, the supernatant was transferred to a new 96-well cell culture plate, and the release of hemoglobin was measured by monitoring optical density (OD) at 576 nm. Untreated hRBCs suspension was used as a negative control, and the hRBCs treated with 0.1% Triton X-100 were employed as positive controls. Each test was reproduced at least 3 times using 6 replicates. Percent hemolysis was calculated using the following equation:

S. typhimurium ATCC14028 = format: cell-based, Salmonella typhimurium; conditions: ATCC14028, 5 h
Protocol: (§1) Minimal bactericidal concentrations (MBCs) were measured using the method which has been adopted from National Committee for Clinical Laboratory Standards (NCCLS), with modifications. In short, 50 μL peptide solutions were pipetted into microtiter plates at various concentrations ranging from 1 to 128 μM. Freshly grown bacteria were added to the each well in a density of 0.5–1 × 10^6 CFUmL^−1. Microtiter plated was incubated at 37 °C for 5 h. Fifty microliters of each incubation mixture was further serially diluted (up to 10^−3 of the initial bacterial concentration), transferred on agar plates and incubated overnight. On the following day, the number of colonies was evaluated and the initial CFU/well retrospectively calculated. The minimum bactericidal concentrations (μM) were determined as the lowest concentration of the peptides that prevented more than 99.9% bacteria growth.

[2] = tested on: 3 gram-negative strains tested; assay: Geometric mean of MBCs and therapeutic index, gram-negative strains; format: cell-based; conditions: MHC/GM for 3 gram-negative strains; >128 counted as 256 μM
Protocol: as §1, with “In” for “Minimal bactericidal concentrations (MBCs) were measured using the method which has been adopted from National Committee for Clinical Laboratory Standards (NCCLS), with modifications. In”
(§2) The therapeutic index (TI) is calculated by the ration of the minimum hemolytic concentration (MHC) to the geometric mean of the MBC (GM) to evaluate cell selectivity of peptides.

S. epidermidis ATCC12228 = format: cell-based, Staphylococcus epidermidis; conditions: ATCC12228, 5 h
Protocol: In short, 50 μL peptide solutions were pipetted into microtiter plates at various concentrations ranging from 1 to 128 μM. Freshly grown bacteria were added to the each well in a density of 0.5–1 × 10^6 CFUmL^−1. Microtiter plated was incubated at 37 °C for 5 h. Fifty microliters of each incubation mixture was further serially diluted (up to 10^−3 of the initial bacterial concentration), transferred on agar plates and incubated overnight. On the following day, the number of colonies was evaluated and the initial CFU/well retrospectively calculated. The minimum bactericidal concentrations (μM) were determined as the lowest concentration of the peptides that prevented more than 99.9% bacteria growth. Each test was reproduced at least 3 times using 6 replicates.

S. aureus ATCC29213 = format: cell-based, Staphylococcus aureus; conditions: ATCC 29213, 5 h
Protocol: as §1

[3] = tested on: Methicillin-resistant S. aureus ATCC 43300; conditions: S. aureus 43300 (methicillin-resistant); lowest concentration preventing more than 99.9% growth; 37 °C, 5 h; representative of three trials
Protocol: as §1, with “In” for “Minimal bactericidal concentrations (MBCs) were measured using the method which has been adopted from National Committee for Clinical Laboratory Standards (NCCLS), with modifications. In”

E. coli ATCC 25922 [4] = format: cell-based, Escherichia coli; conditions: ATCC 25922, 5 h
Protocol: as §1

E. coli UB1005 = format: cell-based, Escherichia coli; conditions: UB1005, 5 h
Protocol: as §1

[5] = tested on: all of the 6 strains tested; assay: Geometric mean of MBCs and therapeutic index, all strains; format: cell-based; conditions: MHC/GM for all 6 strains; >128 counted as 256 μM
Protocol: as §1, with “In” for “Minimal bactericidal concentrations (MBCs) were measured using the method which has been adopted from National Committee for Clinical Laboratory Standards (NCCLS), with modifications. In”
as §2

[6] = tested on: 3 gram-positive strains tested; conditions: MHC/GM for 3 gram-positive strains; >128 counted as 256 μM
Protocol: as §1, with “In” for “Minimal bactericidal concentrations (MBCs) were measured using the method which has been adopted from National Committee for Clinical Laboratory Standards (NCCLS), with modifications. In”
as §2

E. coli ATCC 25922 [7] = format: cell-based, Escherichia coli; conditions: ATCC 25922, 24 h
Protocol: The checkerboard titration method is commonly used to evaluate the synergy of different antibacterial combinations. First, 2-fold serial dilutions of the antibiotics and antimicrobial peptides were prepared. Subsequently, 50 μL each of different concentrations of antibiotics and of antimicrobial peptides was mixed and added into 100 μL of bacterial solution (containing approximately 0.5–1 × 10^6 CFU mL^−1) in each well of a 96-well plate. The plates were then incubated at 37 °C for 24 h. The subsequent steps were consistent with the MBCs determination method. The fractional inhibitory concentration (FIC) index (FICI) was calculated as follows: An FICI < 0.5 is considered to indicate synergy; 0.5 < FICI < 1.0 is considered additive; 1.0 < FICI < 4.0 is considered indifferent; and an FICI > 4.0 is considered antagonism.

E. coli ATCC 25922 [8] = format: cell-based, Escherichia coli; conditions: ATCC 25922, 5 h; remark: listed apart in the source
Protocol: as §1, with “In short, 50 μL peptide solutions were pipetted into microtiter plates at various concentrations ranging from 1 to 128 μM.” left out, “growth. […] The salt sensitivity of the peptides was measured using a modified method, as described previously. […] The subsequent steps were consistent with the MBCs determination method.” for “growth.”

S. aureus ATCC 29213 = format: cell-based, Staphylococcus aureus; conditions: ATCC 29213, 5 h
Protocol: as §1, with “In short, 50 μL peptide solutions were pipetted into microtiter plates at various concentrations ranging from 1 to 128 μM.” left out, “growth. […] The salt sensitivity of the peptides was measured using a modified method, as described previously. […] The subsequent steps were consistent with the MBCs determination method.” for “growth.”

Row | Substance | MHC (minimum hemolytic concentration) [1] | Minimum bactericidal concentration (S. typhimurium ATCC14028) | TI (therapeutic index), gram-negative [2] | Minimum bactericidal concentration (S. epidermidis ATCC12228) | Minimum bactericidal concentration (S. aureus ATCC29213) | Minimum bactericidal concentration [3] | Minimum bactericidal concentration (E. coli ATCC 25922 [4]) | Minimum bactericidal concentration (E. coli UB1005) | TI (therapeutic index), all strains [5] | TI (therapeutic index), gram-positive [6] | MBC with CaCl2 (E. coli ATCC 25922 [8]) | MBC with FeCl3 (E. coli ATCC 25922 [8]) | MBC with KCl (E. coli ATCC 25922 [8]) | MBC with MgCl2 (E. coli ATCC 25922 [8]) | MBC with NH4Cl (E. coli ATCC 25922 [8]) | MBC with NaCl (E. coli ATCC 25922 [8]) | MBC with ZnCl2 (E. coli ATCC 25922 [8]) | MBC, control (E. coli ATCC 25922 [8]) | MBC with CaCl2 (S. aureus ATCC 29213) | MBC with FeCl3 (S. aureus ATCC 29213) | further results
1 | AKLWALKAKLWALKAKLWALK-NH2 [AA3s1] | 16 µM | 16 µM | 3.17 | 64 µM | 16 µM | 16 µM | 2 µM | 4 µM | 1.41 | 0.63 | – | – | – | – | – | – | – | – | – | – | –
2 | AKLWLKAAKLWLKA-NH2 [AA2] | 128 µM | 16 µM | 25.40 | 32 µM | 16 µM | 16 µM | 1 µM | 8 µM | 12.70 | 6.35 | 4 µM | 1 µM | 1 µM | 2 µM | 1 µM | 2 µM | 1 µM | 1 µM | 64 µM | 16 µM | FIC index in combination with Ceftazidime (E. coli ATCC 25922 [7]): 1; FIC index in combination with Chloramphenicol (E. coli ATCC 25922 [7]): 1; FIC index in combination with Ciprofloxacin (E. coli ATCC 25922 [7]): 0.75; FIC index in combination with Streptomycin (E. coli ATCC 25922 [7]): 0.5; MBC with KCl (S. aureus ATCC 29213): 16 µM; MBC with MgCl2 (S. aureus ATCC 29213): 32 µM; MBC with NH4Cl (S. aureus ATCC 29213): 8 µM; MBC with NaCl (S. aureus ATCC 29213): 128 µM; MBC with ZnCl2 (S. aureus ATCC 29213): 8 µM; MBC, control (S. aureus ATCC 29213): 16 µM
3 | AKLWLKAAKLWLKAAKLWLKA-NH2 [AA3] | 8 µM | 4 µM | 3.17 | 4 µM | 4 µM | 4 µM | 2 µM | 2 µM | 2.52 | 2 | 2 µM | 2 µM | 1 µM | 2 µM | 2 µM | 2 µM | 1 µM | 2 µM | 4 µM | 4 µM | FIC index in combination with Ceftazidime (E. coli ATCC 25922 [7]): 1; FIC index in combination with Chloramphenicol (E. coli ATCC 25922 [7]): 1; FIC index in combination with Ciprofloxacin (E. coli ATCC 25922 [7]): 2; MBC with KCl (S. aureus ATCC 29213): 4 µM; MBC with MgCl2 (S. aureus ATCC 29213): 4 µM; MBC with NH4Cl (S. aureus ATCC 29213): 4 µM; MBC with NaCl (S. aureus ATCC 29213): 4 µM; MBC with ZnCl2 (S. aureus ATCC 29213): 4 µM; MBC, control (S. aureus ATCC 29213): 4 µM
4 | AKLWLKAAKLWLKAAKLWLKAAKLWLKA-NH2 [AA4] | 1 µM | 128 µM | 0.03 | 32 µM | 32 µM | 32 µM | 8 µM | 32 µM | 0.03 | 0.03 | 8 µM | 8 µM | 4 µM | 8 µM | 8 µM | 64 µM | 4 µM | 8 µM | 128 µM | 32 µM | MBC with KCl (S. aureus ATCC 29213): 32 µM; MBC with MgCl2 (S. aureus ATCC 29213): 32 µM; MBC with NH4Cl (S. aureus ATCC 29213): 32 µM; MBC with NaCl (S. aureus ATCC 29213): 32 µM; MBC with ZnCl2 (S. aureus ATCC 29213): 32 µM; MBC, control (S. aureus ATCC 29213): 32 µM
5 | GKLWLKGGKLWLKG-NH2 [GG2] | >128 µM | 64 µM | 12.70 | 128 µM | 128 µM | 64 µM | 4 µM | 32 µM | 5.66 | 2.52 | 16 µM | 4 µM | 4 µM | 16 µM | 4 µM | >128 µM | 4 µM | 4 µM | >128 µM | 128 µM | FIC index in combination with Ceftazidime (E. coli ATCC 25922 [7]): 2; FIC index in combination with Chloramphenicol (E. coli ATCC 25922 [7]): 1; FIC index in combination with Ciprofloxacin (E. coli ATCC 25922 [7]): 2; FIC index in combination with Streptomycin (E. coli ATCC 25922 [7]): 1; MBC with KCl (S. aureus ATCC 29213): 128 µM; MBC with MgCl2 (S. aureus ATCC 29213): >128 µM; MBC with NH4Cl (S. aureus ATCC 29213): 128 µM; MBC with NaCl (S. aureus ATCC 29213): >128 µM; MBC with ZnCl2 (S. aureus ATCC 29213): 128 µM; MBC, control (S. aureus ATCC 29213): 128 µM
6 | GKLWLKGGKLWLKGGKLWLKGGKLWLKG-NH2 [GG4] | 16 µM | 32 µM | 1.59 | >128 µM | 128 µM | 128 µM | 4 µM | 8 µM | 0.40 | 0.10 | 4 µM | 4 µM | 4 µM | 4 µM | 4 µM | 4 µM | 4 µM | 4 µM | – | – | –
7 | GLWKGKLGLWKGKLGLWKGKL-NH2 [GG3s2] | >128 µM | 32 µM | 32 | 64 µM | 128 µM | 64 µM | 4 µM | 4 µM | 10.08 | 3.17 | – | – | – | – | – | – | – | – | – | – | –
